Laboratory results from patent publication US20080096244A1, “D-AMINOACYLASE” (DAIICHI PURE CHEMICALS CO., LTD., priority 2002, published 2008).
“Also recorded” adds a separate entry of the source.

What was measured:
[1] = system: D-aminoacylase from the Defluvibacter sp. A131-3 strain; test: Effects of inhibitor on D-aminoacylase activity (D-valine produced, HPLC); type: biochemical; conditions: for Effects of inhibitors on activity: each at 5 mmol/L; for Relative activity (%): inhibitor 5 mmol/L, 0.5 mol/L N-acetyl-D-valine, enzyme 500 U, 40° C., 1 day, no addition of inhibitor = 100%
Experimental: The detection was conducted at 230 nm. The column was analyzed at a temperature of 30° C. The enzymatic activity was evaluated in terms of the ratio between the area of the acetyl compound and the free compound, and the resolution rate was expressed as a […]

[2] = system: D-aminoacylase from the Defluvibacter sp. A131-3 strain; test: Effects of metal ions on D-aminoacylase activity (D-valine produced, HPLC); type: biochemical; conditions: for Effects of metal ions on activity: each at 1 mmol/L; for Relative activity (%): metal ion 1.0 mmol/L, 0.5 mol/L N-acetyl-D-valine, enzyme 500 U, 40° C., 1 day, no metal addition = 100%
[3] = system: D-aminoacylase from the Defluvibacter sp. A131-3 strain; test: Substrate specificity, acylase activity measurement using D-/L-amino acid oxidase chromogenic reagent; type: biochemical; conditions: for Relative activity (% in relation to Met): activity of N-acetyl-D-methionine = 100; for Relative activity (% in relation to Met) / Relative activity (% in relation to Val): 100 mmol/L substrate solution, pH 8, 37° C., 30 minutes; for Relative activity (% in relation to Val): activity of N-acetyl-D-valine = 100; for Substrate specificity: whether the enzyme acts on the substrate: D- or L-amino acid oxidase detection
From the text: (4) Substrate specificity: Substrate specificity of the acylase of the present invention was confirmed by using the following N-acetyl-D-amino acids and N-acetyl-L-amino acids as the substrate and combining therewith the D-amino acid oxidase or the L-amino acid oxidase. The acylase of the present invention acts on the following N-acetyl-D-amino acids but not on the N-acetyl-L-amino acids.
In the measurement of the reactivity with the L-amino acids, an oxidase for L-amino acids is used instead of the D-amino acid oxidase in the activity measurement as will be described below.
4. Substrate specificity was determined by an activity measurement method using the chromogenic reagents for the D- and L-amino acid oxidases as described above.

[4] = 30° C., 1 day
[5] = Isoelectric point by two-dimensional electrophoresis for denatured system; type: physicochemical, Defluvibacter sp. A131-3; conditions: calculated from mobility of 2D-protein isoelectric point markers
Experimental: (3) Isoelectric point: Isoelectric point is measured on the basis of two-dimensional electrophoresis process by two-dimensional electrophoresis for denatured system (using IPG tube gel “Daiichi” 4-10 and PAG Large “Daiichi” 2D-10/20 manufactured by Daiichi Pure Chemicals Co., Ltd.). The pI value of 5.3 is calculated from mobility of 2D-protein isoelectric point markers (2D-protein isoelectric point markers “Daiichi” manufactured by Daiichi Pure Chemicals Co., Ltd.).
3. Protein isoelectric point was measured on the bases of two-dimensional electrophoresis process by two-dimensional electrophoresis for denatured system (using IPG tube gel “Daiichi” 4-10 and PAG Large “Daiichi” 2D-10/20 manufactured by Daiichi Pure Chemicals Co., Ltd.). The pI value of the enzyme of the present invention calculated from the mobility of the pI values 5.1, 5.2, 5.3, 5.4, 5.7, 6.0, 6.2, 6.4, 6.5, 6.7, 6.8, 7.0, and 7.1 of the 2D-protein isoelectric point markers (2D-protein isoelectric point markers “Daiichi” manufactured by Daiichi Pure Chemicals Co., Ltd.) was 5.3.

[6] = Optimal temperature of the enzyme; type: biochemical, Defluvibacter sp. A131-3; conditions: pH 8, 30 minutes

Molecule	Relative activity (% in relation to Met) [3]	Relative activity (% in relation to Val) [3]	Substrate specificity: whether the enzyme acts on the substrate [3]	further results
O[C@H](CS)[C@H](O)CS (racemic) [Dithiothreitol, dithiothreitol]				Effects of inhibitors on activity [1]: inhibited; Relative activity (%) [1]: 38%
OCCS [2-mercaptoethanol]				Effects of inhibitors on activity [1]: inhibited
O.O.O.O.O.O.[Cl-].[Cl-].[Co+2] [Cobalt (II) chloride, cobalt (II) chloride hexahydrate]				Effects of metal ions on activity [2]: inhibited; Relative activity (%) [2]: 27%
O=C(O)CN(CCN(CC(=O)O)CC(=O)O)CC(=O)O [Ethylenediamine tetraacetic acid, ethylenediamine tetraacetic acid]				Relative activity (%) [1]: 112%
NC(=O)CI [Iodacetamide, iodacetamide]				Relative activity (%) [1]: 107%
N[C@@H](CS)C(=O)O [L-cysteine]				Effects of inhibitors on activity [1]: inhibited
O.O.O.O.[Cl][Mn][Cl] [Manganese chloride, manganese (II) chloride tetrahydrate]				Effects of metal ions on activity [2]: inhibited; Relative activity (%) [2]: 48%
CC(=O)N[C@H](CCC(=O)O)C(=O)O [N-Ac-D-Glu, N-acetyl-D-glutamic acid]	0%	0%		
CC(=O)N[C@H](CC(C)C)C(=O)O [N-Ac-D-Leu, N-acetyl-D-leucine]	555%	73%	to some extent; also recorded: acting on	
CSCC[C@@H](NC(C)=O)C(=O)O [N-Ac-D-Met, N-acetyl-D-methionine]	100%	13%	to some extent; also recorded: acting on	
CC(=O)N[C@H](Cc1ccccc1)C(=O)O [N-Ac-D-Phe, N-acetyl-D-phenylalanine]	37%	4.8%	to some extent; also recorded: acting on	
CC(=O)N[C@H](Cc1c[nH]c2ccccc12)C(=O)O [N-Ac-D-Trp, N-acetyl-D-tryptophan]	1.1%	0.2%	to some extent	Substrate specificity: whether the enzyme acts on the substrate ([3]; listed as N-acetyl-D-triptophan): acting on
CC(=O)N[C@H](Cc1ccc(O)cc1)C(=O)O [N-Ac-D-Tyr, N-acetyl-D-tyrosine]	8.4%	1.1%	to some extent; also recorded: acting on	
CC(=O)N[C@@H](C(=O)O)C(C)C [N-Ac-D-Val, N-acetyl-D-valine]	762%	100%	acted most effectively; also recorded: acting on	
CC(=O)N[C@@H](CCC(=O)O)C(=O)O [N-Ac-L-Glu, N-acetyl-L-glutamic acid]	0%	0%		
CC(=O)N[C@@H](CC(C)C)C(=O)O [N-Ac-L-Leu, N-acetyl-L-leucine]	0%	0%	does not act on	
CSCC[C@H](NC(C)=O)C(=O)O [N-Ac-L-Met, N-acetyl-L-methionine]	0%	0%	does not act on	
CC(=O)N[C@@H](Cc1ccccc1)C(=O)O [N-Ac-L-Phe, N-acetyl-L-phenylalanine]	0%	0%	does not act on	
CC(=O)N[C@@H](Cc1c[nH]c2ccccc12)C(=O)O [N-Ac-L-Trp, N-acetyl-L-tryptophan]	0%	0%	does not act on	
CC(=O)N[C@@H](Cc1ccc(O)cc1)C(=O)O [N-Ac-L-Tyr, N-acetyl-L-tyrosine]	0%	0%	does not act on	
CCN1C(=O)C=CC1=O [N-ethylmaleimide]				Relative activity (%) [1]: 100%
O.O.O.O.O.O.[Cl][Ni][Cl] [Nickel chloride, nickel chloride hexahydrate]				Effects of metal ions on activity [2]: inhibited; Relative activity (%) [2]: 20%
c1cnc2c(c1)ccc1cccnc12 [O-phenanthroline, o-phenanthroline]				Effects of inhibitors on activity [1]: inhibited; Relative activity (%) [1]: 53%; Relative activity (%) ([1]; listed as o-phenanthroline): less than 60%
[Cl-].[K+] [Potassium chloride, potassium chloride]				Relative activity (%) [2]: 92%
[Cl-].[Na+] [Sodium chloride, sodium chloride]				Relative activity (%) [2]: 99%
[Na+].[Na+].[O]=[Mo](=[O])([O-])[O-] [Sodium molybdate, sodium molybdate]				Relative activity (%) [2]: 105%
[Cl-].[Cl-].[Zn+2] [Zinc chloride, zinc chloride]				Effects of metal ions on activity [2]: inhibited; Relative activity (%) [2]: 31%
iron (III) chloride hexahydrate				Relative activity (%) [2]: 88%
the enzyme of the present invention: D-aminoacylase from the Defluvibacter sp. A131-3 strain obtained in Example 3; amino acid sequence of SEQ ID NO. 2 (protein, Defluvibacter sp.A131-3) MAKSFDLVIRNGRVVDPETGHDAIADVAVSGGQIVAVGPSLGAGKREIDATGLVVSPGFIDLHAHGQSIPADRMQAFDGVTTALELEVGSLPVARWYEQQQAGGRVLNYGTAAAWIFARKAVMIGMELDGRLAPIEMMGAGSDDMRWSVDAATAPQTDDIVRLTRQALEEGALGIGIPHGYAAGAGVKEMTRICELAAEFDRPTYTHIPYMSNIDPRSSVEAYVQLIGLAGATGAHMHICHLNSTSLRDVEDAARLIAKAQAQGLPITTEAYPYGTGSTVMSARFFIDSDFAERTGTGYDAIQVVSSGKRFENRDELVAARAETPEALVLWHYLDTDNPHDQRLLDVSVMYPGGAIASDAVPWSNPDGTLYTGEEWPLPADKTSHPRSAGTYTRFLAQWVREREAVPLVEAIAKCALIPAQIVERCSDVFRRKGRLQPGCDADIVIFDLESVQDRSTFEDMHLAADGMVHVLVNGEAVIANGELVRDARSGRAIRSTPR				Residual activity at pH 6 or pH 11 [4]: not 0%; pH at which the enzyme is most stable [4]: ~9 pH; Isoelectric point (pI value) [5]: 5.3; Optimal temperature [6]: 37 °C
